Assay results: patent US20250228864A1, “THERAPIES FOR THE TREATMENT OF INFLAMMATORY BOWEL DISEASE” (Gilead Sciences, Inc., priority 2023, published 2025)

Biological target: T1, α4β7 receptors on β7+CD4+CD45RO+ memory T cells (Homo sapiens, UniProt P13612+P26010)
T1 construct: endogenous in cells
T1 sequence (P13612 34-1032): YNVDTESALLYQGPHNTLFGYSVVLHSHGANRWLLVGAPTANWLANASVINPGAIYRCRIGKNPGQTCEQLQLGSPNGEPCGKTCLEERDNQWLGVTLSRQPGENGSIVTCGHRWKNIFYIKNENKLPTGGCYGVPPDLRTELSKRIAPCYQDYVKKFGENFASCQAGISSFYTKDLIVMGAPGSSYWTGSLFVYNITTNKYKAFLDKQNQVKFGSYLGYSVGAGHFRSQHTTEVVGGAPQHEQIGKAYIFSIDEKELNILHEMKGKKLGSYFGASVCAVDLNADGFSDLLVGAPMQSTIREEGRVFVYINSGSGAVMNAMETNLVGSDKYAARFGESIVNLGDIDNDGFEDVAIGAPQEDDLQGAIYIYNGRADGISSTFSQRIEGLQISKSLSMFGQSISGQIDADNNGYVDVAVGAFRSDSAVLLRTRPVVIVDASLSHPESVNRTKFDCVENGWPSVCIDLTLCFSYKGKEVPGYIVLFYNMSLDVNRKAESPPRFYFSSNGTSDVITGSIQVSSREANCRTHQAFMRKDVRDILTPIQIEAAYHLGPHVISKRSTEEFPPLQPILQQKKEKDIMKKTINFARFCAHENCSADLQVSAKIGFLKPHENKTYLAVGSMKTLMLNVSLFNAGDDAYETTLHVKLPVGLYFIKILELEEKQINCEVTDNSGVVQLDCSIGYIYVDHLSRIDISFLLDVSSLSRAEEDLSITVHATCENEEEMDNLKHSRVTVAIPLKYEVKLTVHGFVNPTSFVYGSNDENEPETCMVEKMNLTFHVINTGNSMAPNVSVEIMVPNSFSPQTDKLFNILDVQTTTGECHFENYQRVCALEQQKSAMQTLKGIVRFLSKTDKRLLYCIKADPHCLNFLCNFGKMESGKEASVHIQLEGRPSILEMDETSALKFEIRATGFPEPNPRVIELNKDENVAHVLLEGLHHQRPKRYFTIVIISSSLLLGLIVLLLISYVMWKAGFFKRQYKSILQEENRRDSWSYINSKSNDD
T1 sequence (P26010 20-798): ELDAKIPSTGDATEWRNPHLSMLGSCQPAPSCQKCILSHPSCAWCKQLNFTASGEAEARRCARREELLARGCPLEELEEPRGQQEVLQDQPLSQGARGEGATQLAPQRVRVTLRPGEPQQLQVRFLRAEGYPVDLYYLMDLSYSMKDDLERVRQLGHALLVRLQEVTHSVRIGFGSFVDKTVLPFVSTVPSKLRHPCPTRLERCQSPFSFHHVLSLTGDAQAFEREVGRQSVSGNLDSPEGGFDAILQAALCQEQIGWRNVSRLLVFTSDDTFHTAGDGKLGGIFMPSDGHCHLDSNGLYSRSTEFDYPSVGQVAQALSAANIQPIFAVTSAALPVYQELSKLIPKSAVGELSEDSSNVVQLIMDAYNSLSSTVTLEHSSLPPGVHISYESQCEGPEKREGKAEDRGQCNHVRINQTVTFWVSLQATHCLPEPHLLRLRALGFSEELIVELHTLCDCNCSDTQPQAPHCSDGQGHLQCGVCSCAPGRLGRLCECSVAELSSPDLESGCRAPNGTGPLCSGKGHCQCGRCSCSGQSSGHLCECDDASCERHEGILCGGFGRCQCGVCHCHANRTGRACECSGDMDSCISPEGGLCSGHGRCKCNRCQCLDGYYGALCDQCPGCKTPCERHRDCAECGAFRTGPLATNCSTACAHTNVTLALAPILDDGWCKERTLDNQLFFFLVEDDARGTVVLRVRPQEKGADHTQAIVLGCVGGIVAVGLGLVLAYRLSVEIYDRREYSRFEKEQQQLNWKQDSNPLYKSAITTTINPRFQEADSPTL
Assay: Whole blood α4β7 receptor occupancy (RO) assay by flow cytometry in SAD and MAD cohorts
Format: in vivo
Settings: for time post last dose (Day 14) until which α4β7 % RO≥95% was sustained: 100% of participants
Experimental: Formula (III) is a prodrug of Formula (I) and undergoes a rapid conversion to its active metabolite (Formula (I)) when administered to a human. The pharmacodynamics (PD) of the active metabolite of Formula (III) were analyzed in healthy volunteers by measuring the metabolites receptor occupancy (RO) on α4β7 receptors in whole blood to inform Formula (III) dose selection and schedule.
A whole blood RO assay was developed and fit-for-purpose-validated that measures free α4β7 receptors on […] memory T cells in fresh whole blood by flow cytometry. The β7+CD4+CD45RO+ memory T-cells were identified using a staining panel comprised of fluorescently labelled anti-CD3, -CD4, -CD8, -CD45RO, and -β7 antibodies (Biolegend) (Table 14) as soon as possible after blood collection. Biotinylated human MAdCAM-1 protein, the natural ligand for α4β7, is mixed with streptavidin PE dextramer (Immudex) (MDX) and added to the whole blood in the presence of the divalent cation manganese (as MnCl2). MDX and the metabolite compete for binding to the α4β7 integrin receptor. Specimen data are acquired immediately on a BD LSRFortessa X-20 Cell Analyzer flow cytometer using a α4β7 RO cell acquisition template and application settings. The gating strategy is as follows: lymphocytes are gated based on size (FSC-A) and complexity (SSC-A). Doublets are removed using FSC-A/FSC-H. CD3+ lymphocytes are further differentiated into CD4+ and CD8+ T cells. CD4+CD45RO+ positive T cells are gated on β7 integrin and MDX positivity. The fluorescent intensities of PE-MDX β7+CD4+CD45RO+ memory T cells in pre-dose and post-dose whole blood are used to calculate the % RO post-dose. The lower level of quantification (LLOQ) of the assay was estimated to be ˜40% for a single measurement; similarly, the a4b7 RO assay was fit-for purpose validated to precisely quantify % RO up to 95% RO. Actual measured values <40% RO and ≥95% RO are shown but represent best estimates.
Whole blood was collected pre- and post-Formula (III) or placebo to match (PTM) administration and percent α4β7 RO was calculated for all postbaseline time points in the SAD and MAD cohorts of the study. α4β7% RO was evaluated in all participants in Part A (SAD, Formula (III) 20 mg, 60 mg, 200 mg, 500 mg, and 1000 mg administered in liquid filled capsules under fasting conditions), and in Part B (MAD, Formula (III) 20 mg, 80 mg, 200 mg, 500 mg in liquid filled capsules under non-fasting conditions and Formula (III) 200 mg in tablet formulation under fasting conditions). In total, 2,506 samples collected at 35 different time-points from 109 unique participants were analyzed for α4β7% RO.

time until which full target engagement could possibly be achieved (200 mg capsule nonfasting, after last dose): approximately 48 h
α4β7 % RO 72 h postdose, average (200 mg capsule nonfasting, after last dose Day 14): 90.1%
α4β7 % RO at 24 h post last dose on Day 14 (200 mg capsule nonfasting, all participants): ≥ 95%
time post last dose (Day 14) until which α4β7 % RO≥95% was sustained (200 mg tablet fasting): 72 h
time post last dose (Day 14) until which α4β7 % RO≥95% was sustained (500 mg capsule nonfasting): 96 h
α4β7 % RO (MAD 20 mg QD capsule nonfasting, Day 1, 3 h postdose): 99.8%
α4β7 % RO (MAD 20 mg QD capsule nonfasting, Day 1, 24 h postdose): 37.8%
α4β7 % RO (MAD 20 mg QD capsule nonfasting, Day 14, 24 h postdose): 69.3%
α4β7 % RO (MAD 20 mg QD capsule nonfasting, Day 14, predose): 70.8%
change of α4β7 % RO post multiple once daily doses (MAD 20 mg, Day 1 to Day 14): accumulation
α4β7 % RO (MAD 80 mg QD capsule nonfasting, Day 1, 3 h postdose): 99.9%
α4β7 % RO (MAD 80 mg QD capsule nonfasting, Day 1, 24 h postdose): 98.1%
α4β7 % RO (MAD 80 mg QD capsule nonfasting, Day 14, 24 h postdose): 99.4%
α4β7 % RO (MAD 80 mg QD capsule nonfasting, Day 14, predose): 99.3%
target engagement of α4β7 at 24 h on Day 1 (MAD 80 mg nonfasting): achieved full target engagement
α4β7 % RO (MAD 200 mg QD capsule nonfasting, Day 1, 24 h postdose): 99.8%
α4β7 % RO (MAD 200 mg QD capsule nonfasting, Day 14, 24 h postdose): 99.8%
α4β7 % RO (MAD 200 mg QD capsule nonfasting, Day 14, predose): 99.9%
α4β7 % RO (MAD 200 mg QD tablet fasting, Day 1, 3 h postdose): 99.9%
α4β7 % RO (MAD 200 mg QD tablet fasting, Day 1, 24 h postdose): 99.8%
α4β7 % RO (MAD 200 mg QD tablet fasting, Day 14, 24 h postdose): 99.9%
α4β7 % RO (MAD 200 mg QD tablet fasting, Day 14, predose): 100%
α4β7 % RO (MAD 500 mg QD capsule nonfasting, Day 1, 3 h postdose): 99.9%
α4β7 % RO (MAD 500 mg QD capsule nonfasting, Day 1, 24 h postdose): 99.9%
α4β7 % RO (MAD 500 mg QD capsule nonfasting, Day 14, 24 h postdose): 99.9%
α4β7 % RO (MAD 500 mg QD capsule nonfasting, Day 14, predose): 99.9%
α4β7 % RO 24 h post the last once daily dose on Day 14 (MAD all doses ≥80 mg, in 100% of participants): ≥ 95%
α4β7 % RO (SAD 20 mg liquid-filled capsule fasting, Day 1, 3 h postdose): 100%
α4β7 % RO (SAD 20 mg liquid-filled capsule fasting, Day 1, 24 h postdose): 35.9%
α4β7 % RO (SAD 60 mg liquid-filled capsule fasting, Day 1, 3 h postdose): 100%
α4β7 % RO (SAD 60 mg liquid-filled capsule fasting, Day 1, 24 h postdose): 63.4%
α4β7 % RO (SAD 200 mg liquid-filled capsule fasting, Day 1, 3 h postdose): 99.9%
α4β7 % RO (SAD 200 mg liquid-filled capsule fasting, Day 1, 24 h postdose): 99.7%
α4β7 % RO (SAD 500 mg liquid-filled capsule fasting, Day 1, 3 h postdose): 99.9%
α4β7 % RO (SAD 500 mg liquid-filled capsule fasting, Day 1, 24 h postdose): 99.8%
α4β7 % RO (SAD 1000 mg liquid-filled capsule fasting, Day 1, 3 h postdose): 99.6%
α4β7 % RO (SAD 1000 mg liquid-filled capsule fasting, Day 1, 24 h postdose): 99.8%
α4β7 % RO (full target engagement) (SAD fasting, 3 h postdose, all doses tested): ≥ 95%
subjects with full target engagement (% RO≥95) sustained 24 h postdose (SAD fasting, doses ≥200 mg): 100%
SMILES: CCOC(=O)[C@H](Cc1ccc(-n2c(=O)c3ccncc3n(C)c2=O)c2ncccc12)NC(=O)c1c(C)cc(N2CCOC[C@@H]2C(F)(F)F)cc1F (atropisomer, axis not shown) [Formula (III)]
